What was measured:
5-HT3 = assay: Bezold-Jarisch reflex: reduction of 5-HT-induced bradycardia in anesthetized mice; assay type: in vivo; settings: i.p., 30 min before 5-HT 0.25 mg/kg i.v.; >50% reduction of bradycardia considered significant
Protocol: (§1) 5-HT4 agonist activity was determined in the in vitro rat tunica muscularis mucosae (TMM) assay. (Baxter et al., Naunyn Schmied Arch. Pharmacol, 1991, 343, 439). The 5-HT4 agonist or antagonist and/or 5-HT3 antagonist activity of the compounds of the invention can be determined by these assays described herein, without undue experimentation.
The compound to be evaluated was administered i.p. (mg/kg) to a group of 3 mice. […] This method has been described by Saxena, P. R. and Lawang, A., Arch. Int. Pharmacodyn., 277: 235-252, 1985.

5-HT4 receptor = biological target: T1, 5-HT4 receptor (Rattus norvegicus, UniProt Q62758); assay: In vitro functional assay for serotonin 5-HT4 agonism: rat TMM (relaxation of carbachol-contracted tunica muscularis mucosae); assay type: biochemical; settings: rat esophagus, carbachol (3 μM) contracted, 37° C, tissues from 5 rats
T1 construct: The inner tunica muscularis mucosa was mounted under 0.2-0.3 g of tension in a tissue bath; from tissue; host or cells: rat intrathoracic esophagus, tunica muscularis mucosae
T1 sequence (Q62758 whole entry): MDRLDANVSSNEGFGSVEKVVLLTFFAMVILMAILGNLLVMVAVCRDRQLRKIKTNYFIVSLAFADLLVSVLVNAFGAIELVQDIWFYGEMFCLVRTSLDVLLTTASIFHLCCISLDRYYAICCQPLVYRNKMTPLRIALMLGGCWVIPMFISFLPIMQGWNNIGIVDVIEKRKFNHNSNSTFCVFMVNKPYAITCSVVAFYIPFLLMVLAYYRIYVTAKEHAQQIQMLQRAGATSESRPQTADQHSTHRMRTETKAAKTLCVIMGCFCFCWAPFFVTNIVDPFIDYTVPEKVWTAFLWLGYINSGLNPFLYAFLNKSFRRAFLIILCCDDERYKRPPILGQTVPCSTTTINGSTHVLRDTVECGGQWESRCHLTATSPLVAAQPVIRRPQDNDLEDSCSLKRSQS
Protocol: as §1
Agonist activity was determined utilizing relaxation of carbachol-contracted rat tunica muscularis mucosae. One 2 cm segment of intrathoracic esophagus proximal to the diaphragm was removed from male rats, weighing approximately 300 gm, and the outer muscle layers removed. The inner tunica muscularis mucosa was mounted under 0.2-0.3 g of tension in a tissue bath containing oxygenated Tyrode's solution at 37° C. […] Following a 30 min equilibrium period, tissues were isometrically contracted with carbachol (3 μM) to obtain a tonic contraction. A stable plateau was obtained within 20 min when test compound was added cumulatively to relax the muscle strip. EC50 values were obtained for each agonist in tissues from 5 rats.

5-HT3 receptor = biological target: T2, 5-HT3 receptor (Rattus norvegicus, UniProt P35563); assay: [3H]-GR65630 radioligand binding to 5-HT3 receptor, rat brain cortex membranes
T2 construct: Brain cortices were obtained from male rats and a membrane fraction prepared by standard techniques; from tissue; host or cells: rat brain cortex, membrane fraction
T2 sequence (P35563 24-483): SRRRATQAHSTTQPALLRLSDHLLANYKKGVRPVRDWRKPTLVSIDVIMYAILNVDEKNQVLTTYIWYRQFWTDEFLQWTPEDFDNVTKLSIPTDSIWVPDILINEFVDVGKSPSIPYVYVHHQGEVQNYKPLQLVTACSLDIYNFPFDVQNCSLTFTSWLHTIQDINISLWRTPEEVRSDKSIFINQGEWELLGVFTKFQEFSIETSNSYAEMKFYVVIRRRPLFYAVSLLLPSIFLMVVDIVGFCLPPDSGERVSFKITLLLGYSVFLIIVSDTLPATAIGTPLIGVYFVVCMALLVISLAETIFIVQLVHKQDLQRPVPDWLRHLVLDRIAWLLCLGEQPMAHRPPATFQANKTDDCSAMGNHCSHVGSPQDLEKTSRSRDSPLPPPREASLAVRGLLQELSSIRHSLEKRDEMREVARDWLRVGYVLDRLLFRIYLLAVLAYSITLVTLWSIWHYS
Protocol: as §1
GR65630 binds to the 5-HT3 receptor. Brain cortices were obtained from male rats and a membrane fraction prepared by standard techniques. 0.04 mg of membrane prep was incubated with 0.2 nM […] for 60 minutes at 22° C. […] Membranes were filtered and washed 3 times and the filters were counted to determine [3H]-GR65630 specifically bound. (Kilpatrick G. J., Jones B. J. and Tyers M. B. Identification and distribution of 5-HT3 receptors in rat brain using radioligand binding. Nature, 330: 746-748, 1987).

SMILES: CN1C2CCCC1CC(NC(=O)c1nn(C)c3ccccc13)C2 (stereo not shown) [BRL-43694]
- Minimum Effective Dose (MED) (5-HT3): 0.05 mg/kg

SMILES: CC(C)n1c(=O)n(C(=O)NCC23CCN(CC2)CC3)c2ccccc21 [Example 10, N-(1-azabicyclo[2.2.2]octan-4-ylmethyl)-2,3-dihydro-3-(1-methylethyl)-2-oxo-1H-benzimidazole-1-carboxamide]
- Minimum Effective Dose (MED) (5-HT3): 0.03 mg/kg
- EC50 (5-HT4 receptor): 125 nM
- IC50 (5-HT3 receptor; [3H]-GR65630 bound (0.2 nM)): 8.6 nM
- Ki (5-HT3 receptor; [3H]-GR65630 bound (0.2 nM)): 4.3 nM

SMILES: Cc1[nH]cnc1CCC(=O)c1cn(C)c2ccccc12 [GR65630]
- % Specific Binding (5-HT3 receptor; [3H]-GR65630, non-specific binding with 1 uM ICS 205-930): 70%

SMILES: CN1C2CCC1CC(OC(=O)c1c[nH]c3ccccc13)C2 (stereo not shown) [ICS 205-930]
- Hill Coefficient (5-HT3 receptor; [3H]-GR65630 bound (0.2 nM)): 1.0

SMILES: c1ccc2nc(N3CCNCC3)ccc2c1 [Quipazine]
- Hill Coefficient (5-HT3 receptor; [3H]-GR65630 bound (0.2 nM)): 0.86

SMILES: COc1ccc2[nH]cc(C3=CCNCC3)c2c1 [RU24969]
- Hill Coefficient (5-HT3 receptor; [3H]-GR65630 bound (0.2 nM)): 1.0

SMILES: COc1cc(N)c(Cl)cc1C(=O)NC1CN2CCC1CC2 (stereo not shown) [Zacopride]
- Hill Coefficient (5-HT3 receptor; [3H]-GR65630 bound (0.2 nM)): 0.86

SMILES: O=c1[nH]c2ccccc2n1CCCN1CCC(n2c(=O)[nH]c3cc(Cl)ccc32)CC1 [domperidone]
- Minimum Effective Dose (MED) (5-HT3): > 10 mg/kg

SMILES: CCN(CC)CCNC(=O)c1cc(Cl)c(N)cc1OC [metoclopramide]
- Minimum Effective Dose (MED) (5-HT3): 5 mg/kg

SMILES: CN1[C@@H]2C[C@@H](OC(=O)[C@H](CO)c3ccccc3)C[C@H]1[C@@H]1O[C@@H]12 [scopolamine]
- Minimum Effective Dose (MED) (5-HT3): 2.5 mg/kg
